Test: In vivo brain penetration (rat Kpuu study)
Conditions: brain and plasma (unbound), IV infusion in the carotid artery for four hours, 1 mg/kg, steady state, Kpuu=Cu,b/Cu,p
Description: To evaluate the CNS penetration of the compounds described herein, several compounds were selected for in vivo rat Kpuu studies. In these experiments the compounds are administered via an IV infusion (using N,N-dimethylacetamide:ethanol:1,2-propylene glycol:water in a 1:1:3:5 ratio as the vehicle) in the carotid artery for a period of four hours (1 mg/kg, 0.1 mg/mL) to reach steady state. After this time the plasma and brain concentration levels are quantified, and the values are adjusted by the measured protein binding in plasma and brain homogenate to calculate the Kpuu (see Di, L.; Kerns, E. H. Blood-Brain Barrier in Drug Discovery (Wiley)) according to the equation below. Kpuu=Cu,b/Cu,p • Wherein: • Cu,b=Unbound concentration in brain (C×fu,b). (C=concentration at steady state; fu,b=fraction unbound in brain) • And in which: Cu,p=Unbound concentration in plasma (C×fu,p). (C=concentration at steady state; fu,p=fraction unbound in plasma)
Plasma and brain protein binding values were generated via the Rapid Equilibrium Dialysis method. The compound of interest was incubated in K2EDTA plasma and brain homogenate (homogenized 1:7 (w:v) in 1×PBS) purchased from BioIVT (Westbury, N.Y.), opposite a buffered compartment of 100 mM Potassium phosphate/150 mM Sodium chloride, pH 7.4, at 1 μM for 4 hr and 6 hr respectively. At the conclusion of incubation samples were taken from both matrix and buffered compartments, matrix-matched using blank buffer and matrix, extracted with acetonitrile, diluted with water, and analyzed utilizing an Agilent RapidFire 365 high-throughput LC coupled with MS/MS detection via an AB Sciex 5500. Free fractions (fu) were then calculated by comparing internal standard/analyte peak-area ratios of matrix and buffered compartments. Cross-species brain protein binding was considered to be equivalent for the purposes of calculating free fraction (see Di, L., et al., (2011a) Species Independence in Brain Tissue Binding Using Brain Homogenates, Drug Metab Dispos 39:1270-1277).
Total drug concentration in plasma and brain tissue was measured via well-established bioanalytical extraction (protein precipitation) and detection methods (LC-MS/MS). Brain tissues were homogenized 1:4 (w:v) with 1×PBS in MP Biomedicals Lysing Matrix D tubes via an MP Biomedicals FastPrep-24™ homogenizer and were then extracted alongside plasma samples by matrix-matching with blank K2EDTA plasma (purchased from BioIVT), followed by protein crash/extraction with acetonitrile, supernatant dry down under nitrogen, and reconstitution with an acidified aqueous/organic mixture before being measured against a calibration curve of the compound of interest prepared in plasma, matrix-matched with blank brain homogenate (generated with brains purchased from BioIVT), and similarly extracted. Reconstituted extracts were then analyzed via LC-MS/MS (AB Sciex 5500) utilizing a binary HPLC setup (Shimadzu LC-20ADvp) and reverse-phase chromatography gradient (ACE 3 C18-AR). Peak area ratios and a 1/x^2 regression fit were used to generate sample concentration values that, combined with plasma and brain protein binding values, were used to generate free drug concentration values and partitioning coefficient (Kpuu).

Question: For `C[C@H]1CCCOc2ncc(-c3ccncc3)cc2C(=O)Nc2cccc(n2)-c2nncn21` [Compound 17, (S)-10-Methyl-5^5-(pyridin-4-yl)-1^4H-6-oxa-3-aza-2(2,6),5(3,2)-dipyridina-1(3,4)-triazolacyclodecaphan-4-one], which Kp uu at 4 h is on record?
Answer: ≥ 0.1

Question: Which Kp uu at 4 h does the source give for `C[C@H]1CCCOc2ncccc2C(=O)Nc2cccc(n2)-c2nncn21` (single isomer, unassigned) [Compound 4] here?
Answer: ≥ 0.1

Question: Which Kp uu at 4 h does the source give for `C[C@H]1CCCOc2ncc(C#N)cc2C(=O)Nc2cccc(n2)-c2nncn21` [Compound 38, (S)-10-Methyl-4-oxo-1^4H-6-oxa-3-aza-2(2,6),5(3,2)-dipyridina-1(3,4)-triazolacyclodecaphane-5^5-carbonitrile] here?
Answer: < 0.1

Question: For `C[C@H]1CCCOc2ncc(C(F)(F)F)cc2C(=O)Nc2cccc(n2)-c2nncn21` (single isomer, unassigned) [Compound 41], which Kp uu at 4 h is on record?
Answer: ≥ 0.1

Question: Which Kp uu at 4 h does the source give for `C[C@H]1CCCOc2ncc(Br)cc2C(=O)Nc2cccc(n2)-c2nncn21` (single isomer, unassigned) [Compound 1] here?
Answer: ≥ 0.1

— patent US11897898B2, “Pyridine macrocycle compounds as ASK1 inhibiting agents” (BIOGEN MA INC., priority 2018, dated 2024)
